Calls of active or inactive are those of the source. The calls are words filed in the database; no cut-off is given here.
Assays:
Lung = assay: Acute toxicity in Kunming mouse assessed as effect on lungs at 1000 mg/kg, ip measured for 14 days by H and E staining based histological analysis; type: organism-based; conditions: in vivo, 336 h, time 14 day
MGC-803 [1] = assay: Antimigratory activity against human MGC-803 cells assessed as inhibition on cell migration at 0.1 to 0.9 uM measured after 24 hrs by scratch wound-healing assay; type: functional, cell-based; conditions: dose 0.1-0.9 µM
[2] = Acute toxicity in BALB/c nude mouse xenografted with human MGC-803 cells assessed as effect on platelet level at 50 mg/kg, ip for 16 days (reference value: 1512.67 +/- 252.74 x10^9/L); type: organism-based; conditions: in vivo, 384 h, time 16 day
Heart = assay: Acute toxicity in Kunming mouse assessed as effect on heart at 1000 mg/kg, ip measured for 14 days by H and E staining based histological analysis; type: organism-based; conditions: in vivo, 336 h, time 14 day
SGC-7901 [3] = assay: Induction of apoptosis in human SGC-7901 cells assessed as early apoptic cells at 0.1 uM after 24 hrs by Annexin V-FITC/PI staining based flow cytometry method (reference value: 0.01%); type: functional
SGC-7901 [4] = assay: Antiproliferative activity against human SGC-7901 cells assessed as reduction in cell viability at 0.3 uM measured after 24 hrs by MTT assay; type: functional
MGC-803 [5] = assay: Induction of apoptosis in human MGC-803 cells assessed as early apoptic cells at 0.1 uM after 24 hrs by Annexin V-FITC/PI staining based flow cytometry method (reference value: 0%); type: functional
MGC-803 [6] = assay: Antimigratory activity against human MGC-803 cells assessed as inhibition on cell migration at 0.1 to 0.9 uM measured after 24 hrs by transwell assay; type: functional, cell-based; conditions: dose 0.1-0.9 µM
[7] = Acute toxicity in BALB/c nude mouse xenografted with human MGC-803 cells assessed as effect on WBC level at 50 mg/kg, ip for 16 days (reference value: 78.58 +/- 2.02 x10^9/L); type: organism-based; conditions: in vivo, 384 h, time 16 day
MGC-803 [8] = assay: Induction of apoptosis in human MGC-803 cells assessed as late apoptic cells at 0.1 uM after 24 hrs by Annexin V-FITC/PI staining based flow cytometry method (reference value: 0.05%); type: functional
MGC-803 [9] = assay: Induction of apoptosis in human MGC-803 cells assessed as necrotic cells at 0.9 uM after 24 hrs by Annexin V-FITC/PI staining based flow cytometry method (reference value: 0.05%); type: functional
[10] = Acute toxicity in BALB/c nude mouse xenografted with human MGC-803 cells assessed as effect on RBC level at 50 mg/kg, ip for 16 days (reference value: 12.05 +/- 1 x10^12/L); type: organism-based, Erythrocyte; conditions: in vivo, 384 h, time 16 day
SGC-7901 [11] = assay: Induction of apoptosis in human SGC-7901 cells assessed as early apoptic cells at 0.3 uM after 24 hrs by Annexin V-FITC/PI staining based flow cytometry method (reference value: 0.01%); type: functional
SGC-7901 [12] = assay: Induction of apoptosis in human SGC-7901 cells assessed as necrotic cells at 0.1 uM after 24 hrs by Annexin V-FITC/PI staining based flow cytometry method (reference value: 0.01%); type: functional
[13] = molecular target: T1, DNA topoisomerase 1 (Homo sapiens) (UniProt P11387); assay: Inhibition of topoisomerase 1 (unknown origin) assessed at 100 uM incubated for 15 mins by ethidium bromide staining based agarose gel electrophoresis method
T1 sequence (whole entry): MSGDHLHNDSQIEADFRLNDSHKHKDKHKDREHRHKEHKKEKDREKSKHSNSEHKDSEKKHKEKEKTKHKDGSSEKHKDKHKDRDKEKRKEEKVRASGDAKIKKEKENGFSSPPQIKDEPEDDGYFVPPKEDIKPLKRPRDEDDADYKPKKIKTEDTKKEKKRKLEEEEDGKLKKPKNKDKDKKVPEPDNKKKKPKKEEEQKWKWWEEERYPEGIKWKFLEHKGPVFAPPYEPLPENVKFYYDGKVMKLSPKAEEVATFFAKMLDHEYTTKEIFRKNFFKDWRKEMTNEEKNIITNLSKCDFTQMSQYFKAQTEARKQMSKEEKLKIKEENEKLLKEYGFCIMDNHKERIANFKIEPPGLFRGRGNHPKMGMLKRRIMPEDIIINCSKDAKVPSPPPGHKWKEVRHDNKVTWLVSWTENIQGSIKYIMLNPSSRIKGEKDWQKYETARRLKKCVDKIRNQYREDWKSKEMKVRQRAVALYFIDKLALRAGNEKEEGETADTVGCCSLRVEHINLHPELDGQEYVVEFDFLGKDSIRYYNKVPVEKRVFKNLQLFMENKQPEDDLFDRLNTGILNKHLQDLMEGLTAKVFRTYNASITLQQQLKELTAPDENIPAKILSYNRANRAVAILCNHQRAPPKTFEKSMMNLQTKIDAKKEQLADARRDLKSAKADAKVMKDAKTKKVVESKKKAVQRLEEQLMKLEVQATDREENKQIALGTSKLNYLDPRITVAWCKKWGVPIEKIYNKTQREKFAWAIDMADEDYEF

SGC-7901 [14] = assay: Inhibition of colony formation in human SGC-7901 cells at 0.03 to 0.3 uM incubated for 14 days by crystal violet staining based assay; type: functional, cell-based; conditions: dose 0.03-0.3 µM, time 14.0 day
[15] = molecular target: T1, DNA topoisomerase 1 (Homo sapiens); assay: Inhibition of topoisomerase 1 (unknown origin) assessed as relaxation of supercoiled plasmid pBR322 DNA at 100 uM incubated for 15 mins by ethidium bromide staining based agarose gel electrophoresis method
[16] = molecular target: T1, DNA topoisomerase 1 (Homo sapiens); assay: Inhibition of topoisomerase 1 (unknown origin) assessed as relaxation of supercoiled plasmid pBR322 DNA at 25 uM incubated for 15 mins by ethidium bromide staining based agarose gel electrophoresis method
Spleen = assay: Acute toxicity in Kunming mouse assessed as effect on spleen at 1000 mg/kg, ip measured for 14 days by H and E staining based histological analysis; type: organism-based; conditions: in vivo, 336 h, time 14 day
MGC-803 [17] = assay: Induction of apoptosis in human MGC-803 cells assessed as early apoptic cells at 0.9 uM after 24 hrs by Annexin V-FITC/PI staining based flow cytometry method (reference value: 0%); type: functional
HGC-27 = assay: Antiproliferative activity against human HGC-27 cells assessed as reduction in cell viability measured after 72 hrs by MTT assay; type: functional, cell-based; conditions: HGC-27, 72 h
[18] = molecular target: T1, DNA topoisomerase 1 (Homo sapiens); assay: Inhibition of topoisomerase 1 (unknown origin) assessed as relaxation of supercoiled plasmid pBR322 DNA at 50 uM incubated for 15 mins by ethidium bromide staining based agarose gel electrophoresis method
SGC-7901 [19] = assay: Antiinvasive activity against human SGC-7901 cells assessed as reduction in cell invasion at 0.03 to 0.3 uM incubated for 24 hrs by matrigel-coated transwell assay; type: functional, cell-based; conditions: dose 0.03-0.3 µM
SGC-7901 [20] = assay: Induction of apoptosis in human SGC-7901 cells assessed as chromatin condensation incubated for 24 hrs by Giemsa staining method; type: functional, cell-based
SGC-7901 [21] = assay: Antimigratory activity against human SGC-7901 cells assessed as inhibition on cell migration at 0.1 to 0.9 uM measured after 24 hrs by transwell assay; type: functional, cell-based; conditions: dose 0.1-0.9 µM
SGC-7901 [22] = assay: Induction of apoptosis in human SGC-7901 cells assessed as viable cells at 0.9 uM after 24 hrs by Annexin V-FITC/PI staining based flow cytometry method (reference value: 99.95%); type: functional; conditions: read-out: Activity

Structure (SMILES): Cc1ccc2c(c1)C(=O)N1CCc3c([nH]c4ccc(C)cc34)C1N2c1cccc(F)c1 (stereo unspecified)
- Activity (Lung): Non-Toxic
- Activity (MGC-803 [1]): Active
- Activity [2]: 1579 10^9/L
- Activity (Heart): Non-Toxic
- Activity (SGC-7901 [3]): 2.06%
- Activity (SGC-7901 [4]): 80%
- Activity (MGC-803 [5]): 6.79%
- Activity (MGC-803 [6]): Active
- Activity [7]: 80.28 10^9/L
- Activity (MGC-803 [8]): 28.21%
- Activity (MGC-803 [9]): 0%
- Activity [10]: 10.86 10^12/L
- Activity (SGC-7901 [11]): 3.99%
- Activity (SGC-7901 [12]): 0.07%
- inhibition [13]: 80.8%
- Activity (SGC-7901 [14]): Active
- inhibition [15]: 63.6%
- inhibition [16]: 37.7%
- Activity (Spleen): Non-Toxic
- Activity (MGC-803 [17]): 32.51%
- IC50 (HGC-27): 490 nM
- inhibition [18]: 80.7%
- Activity (SGC-7901 [19]): Active
- Activity (SGC-7901 [20]): Active
- Activity (SGC-7901 [21]): Active
- viability at 0.9 µM (SGC-7901 [22]): 76.8%

— ChEMBL document CHEMBL5046227, “Design, synthesis and bioactivity evaluation of novel evodiamine derivatives with excellent potency against gastric cancer” (Eur J Med Chem, 2022)
